Measurements published in ChEMBL document CHEMBL5120746, “Novel 5-fluorouracil sensitizers for colorectal cancer therapy: Design and synthesis of S1P receptor 2 (S1PR2) antagonists” (Eur J Med Chem, 2022).
Calls of active or inactive are those of the source. The rule behind the calls is not given here.

Tests used:
HCT-116 [1] = experiment: Reversal of 5-FU resistance against 5-FU resistant DPD expressed human HCT-116 cells assessed as reduction in cell viability incubated for 48 hrs in presence of 5-FU by MTT assay; format: functional, cell-based; settings: HCT-116, 48 h
SW620/5-FU [2] = experiment: Reversal of 5-FU resistance against human SW620/5-FU cells assessed as reduction in cell viability incubated for 48 hrs in presence of 5-FU by MTT assay; format: functional, cell-based
NCM460 = experiment: Cytotoxicity against human NCM460 cells assessed as reduction in cell viability at 5 to 80 uM; format: toxicity, cell-based; settings: ncm460, 80 µM, dose 5-80 µM
HCT-116 [3] = experiment: Downregulation of DPD expression in DPD expressed human HCT-116 cells measured after 12 hrs by Western blot analysis; format: functional, cell-based; settings: dose 5-40 µM, DDE = dose-dependent effect
SW620/5-FU [4] = experiment: Downregulation of DPD expression in human SW620/5-FU cells at 10 uM by Western blot analysis; format: functional, cell-based; settings: time 4-48 hrs, TDE = time-dependent effect
[5] = biological target: ATP-dependent translocase ABCB1 (Homo sapiens, UniProt P08183); experiment: Reversal of Pgp-mediated paclitaxel resistance in human LCC6MDR cells assessed as P-gp modulating activity by measuring relative fold at 1 uM; format: cell-based
[6] = Downregulation of S1PR2 mRNA expression level in DPD expressed human HCT-116 cells at 20 uM measured after 24 hrs by qRT-PCR analysis; format: functional
[7] = biological target: Sphingosine 1-phosphate receptor 2 (Homo sapiens, UniProt O95136); experiment: Antagonist activity at S1PR2 in human SW620/5-FU cells assessed as reduction of DPD-catalyzed 5-FU degradation by measuring intracellular 5-FU level at 20 uM measured after 24 hrs by HPLC-UV analysis; format: functional, cell-based; settings: filed as antagonist
[8] = Half life in Sprague-Dawley rat blood at 1 mg/kg, iv measured up to 24 hrs by HPLC-MS/MS analysis; format: ADME, organism-based
[9] = AUC (0 to t) in Sprague-Dawley rat blood at 1 mg/kg, iv measured up to 24 hrs by HPLC-MS/MS analysis; format: ADME, organism-based; parameters: dose 1 mg/kg, time < 24 hrs, route iv
[10] = AUC (0 to infinity) in Sprague-Dawley rat blood at 1 mg/kg, iv measured up to 24 hrs by HPLC-MS/MS analysis; format: ADME, organism-based; parameters: dose 1 mg/kg, time < 24 hrs, route iv
[11] = Apparent volume of distribution in Sprague-Dawley rat blood at 1 mg/kg, iv measured up to 24 hrs by HPLC-MS/MS analysis; format: ADME, organism-based; settings: read-out: Vd(app)
[12] = Clearance in Sprague-Dawley rat blood at 1 mg/kg, iv measured up to 24 hrs by HPLC-MS/MS analysis; format: ADME, organism-based
[13] = MRT (0 to t) in Sprague-Dawley rat blood at 1 mg/kg, iv measured up to 24 hrs by HPLC-MS/MS analysis; format: ADME, organism-based
[14] = MRT (0 to infinity) in Sprague-Dawley rat blood at 1 mg/kg, iv measured up to 24 hrs by HPLC-MS/MS analysis; format: ADME, organism-based
[15] = Initial drug concentration in Sprague-Dawley rat plasma at 1 mg/kg, iv measured up to 24 hrs by HPLC-MS/MS analysis; format: ADME, organism-based
[16] = Half life in Sprague-Dawley rat plasma at 1 mg/kg, iv measured up to 24 hrs by HPLC-MS/MS analysis; format: ADME, organism-based; settings: in vivo
[17] = AUC (0 to t) in Sprague-Dawley rat plasma at 1 mg/kg, iv measured up to 24 hrs by HPLC-MS/MS analysis; format: ADME, organism-based; parameters: dose 1 mg/kg, time < 24 hrs, route iv
[18] = AUC (0 to infinity) in Sprague-Dawley rat plasma at 1 mg/kg, iv measured up to 24 hrs by HPLC-MS/MS analysis; format: ADME, organism-based; parameters: dose 1 mg/kg, time < 24 hrs, route iv
[19] = Clearance in Sprague-Dawley rat plasma at 1 mg/kg, iv measured up to 24 hrs by HPLC-MS/MS analysis; format: ADME, organism-based; settings: in vivo
[20] = MRT (0 to t) in Sprague-Dawley rat plasma at 1 mg/kg, iv measured up to 24 hrs by HPLC-MS/MS analysis; format: ADME, organism-based
[21] = MRT (0 to infinity) in Sprague-Dawley rat plasma at 1 mg/kg, iv measured up to 24 hrs by HPLC-MS/MS analysis; format: ADME, organism-based
[22] = Toxicity in SPF nude mouse xenografted with DPD expressed human HCT-116 cells assessed as change in body weight at 15 mg/kg, iv QD for 20 days and measured every 4 days; format: organism-based; settings: in vivo, 480 h, time 20 day
[23] = Toxicity in SPF nude mouse xenografted with human SW620/5-FU cells assessed as change in body weight at 7.5 mg/kg, iv QD for 21 days and measured every 4 days in presence of 5-fluorouracil; format: organism-based; settings: in vivo, 504 h, time 21 day
HCT-116 [24] = experiment: Antitumor activity against DPD expressed human HCT-116 cells xenografted in SPF nude mouse assessed as tumor growth inhibition at 15 mg/kg, iv QD for 20 days and measured every 4 days in presence of 5-fluorouracil; format: functional; settings: HCT-116, 480 h, time 20 day, read-out: TGI
SW620/5-FU [25] = experiment: Antitumor activity against human SW620/5-FU cells xenografted in SPF nude mouse assessed as tumor growth inhibition at 15 mg/kg, iv QD for 21 days and measured every 4 days; format: functional; settings: 504 h, time 21 day, read-out: TGI
SW620/5-FU [26] = experiment: Antitumor activity against human SW620/5-FU cells xenografted in SPF nude mouse assessed as tumor growth inhibition at 7.5 mg/kg, iv QD for 21 days and measured every 4 days; format: functional; settings: 504 h, time 21 day, read-out: TGI
SW620/5-FU [27] = experiment: Antitumor activity against human SW620/5-FU cells xenografted in SPF nude mouse assessed as tumor growth inhibition at 15 mg/kg, iv QD for 21 days and measured every 4 days in presence of 5-fluorouracil; format: functional; settings: 504 h, time 21 day, read-out: TGI
SW620/5-FU [28] = experiment: Antitumor activity against human SW620/5-FU cells xenografted in SPF nude mouse assessed as tumor growth inhibition at 30 mg/kg, iv QD for 21 days and measured every 4 days in presence of 5-fluorouracil; format: functional; settings: 504 h, time 21 day, read-out: TGI
SW620/5-FU [29] = experiment: Antitumor activity against human SW620/5-FU cells xenografted in SPF nude mouse assessed as reduction in tumor weight at 7.5 mg/kg, iv QD for 21 days in presence of 5-fluorouracil; format: functional; parameters: scale not given: the % may be the effect or the level left; settings: time 21 day
SW620/5-FU [30] = experiment: Antitumor activity against human SW620/5-FU cells xenografted in SPF nude mouse assessed as reduction in tumor weight at 15 mg/kg, iv QD for 21 days in presence of 5-fluorouracil; format: functional; parameters: scale not given: the % may be the effect or the level left; settings: time 21 day
SW620/5-FU [31] = experiment: Antitumor activity against human SW620/5-FU cells xenografted in SPF nude mouse assessed as reduction in tumor weight at 30 mg/kg, iv QD for 21 days in presence of 5-fluorouracil; format: functional; parameters: scale not given: the % may be the effect or the level left; settings: time 21 day
Mus musculus [32] = experiment: Downregulation of DPD expression in tumor of SPF nude mouse xenografted with human SW620/5-FU cells at 7.5 to 15 mg/kg, iv QD for 21 days by immunohistochemical analysis; format: functional, organism-based; settings: dose 7.5-15 mg/kg, time 21.0 day
Mus musculus [33] = experiment: Downregulation of S1PR2 expression in tumor SPF nude mouse xenografted with human SW620/5-FU cells at 7.5 to 15 mg/kg, iv QD for 21 days by immunohistochemical analysis; format: functional, organism-based; settings: dose 7.5-15 mg/kg, time 21.0 day

ATP-dependent translocase ABCB1, sequence (P08183 whole entry): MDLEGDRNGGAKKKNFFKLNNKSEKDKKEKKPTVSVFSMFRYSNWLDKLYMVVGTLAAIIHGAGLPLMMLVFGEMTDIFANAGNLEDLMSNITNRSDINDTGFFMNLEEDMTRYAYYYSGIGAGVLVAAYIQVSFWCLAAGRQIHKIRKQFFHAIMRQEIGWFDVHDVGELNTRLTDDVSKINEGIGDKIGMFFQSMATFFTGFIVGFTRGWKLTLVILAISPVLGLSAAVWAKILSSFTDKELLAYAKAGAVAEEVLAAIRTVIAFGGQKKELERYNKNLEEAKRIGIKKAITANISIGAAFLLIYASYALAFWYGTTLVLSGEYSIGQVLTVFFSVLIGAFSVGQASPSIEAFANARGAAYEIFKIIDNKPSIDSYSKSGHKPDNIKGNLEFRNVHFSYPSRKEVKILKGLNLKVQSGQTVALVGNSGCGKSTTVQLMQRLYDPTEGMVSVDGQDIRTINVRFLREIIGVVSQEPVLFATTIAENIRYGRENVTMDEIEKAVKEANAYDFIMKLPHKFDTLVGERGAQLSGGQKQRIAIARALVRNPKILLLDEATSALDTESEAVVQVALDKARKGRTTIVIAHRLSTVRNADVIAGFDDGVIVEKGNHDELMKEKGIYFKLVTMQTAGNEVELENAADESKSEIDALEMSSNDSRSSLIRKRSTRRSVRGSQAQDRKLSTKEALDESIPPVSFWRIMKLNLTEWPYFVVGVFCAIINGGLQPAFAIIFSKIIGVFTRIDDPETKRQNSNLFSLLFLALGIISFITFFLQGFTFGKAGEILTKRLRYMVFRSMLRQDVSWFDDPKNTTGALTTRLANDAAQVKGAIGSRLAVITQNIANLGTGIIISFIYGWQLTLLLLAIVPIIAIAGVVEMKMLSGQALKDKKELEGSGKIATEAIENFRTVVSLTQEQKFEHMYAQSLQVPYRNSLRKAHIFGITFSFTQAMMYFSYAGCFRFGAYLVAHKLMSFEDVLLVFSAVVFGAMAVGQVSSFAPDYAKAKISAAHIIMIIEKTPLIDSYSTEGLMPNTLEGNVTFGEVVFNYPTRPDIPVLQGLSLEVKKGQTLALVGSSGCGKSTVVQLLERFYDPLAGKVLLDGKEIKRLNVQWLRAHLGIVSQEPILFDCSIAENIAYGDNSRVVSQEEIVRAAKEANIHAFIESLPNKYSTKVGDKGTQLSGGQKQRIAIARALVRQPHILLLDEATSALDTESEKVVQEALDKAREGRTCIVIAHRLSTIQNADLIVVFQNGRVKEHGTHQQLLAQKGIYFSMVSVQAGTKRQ
Sphingosine 1-phosphate receptor 2, sequence (O95136 whole entry): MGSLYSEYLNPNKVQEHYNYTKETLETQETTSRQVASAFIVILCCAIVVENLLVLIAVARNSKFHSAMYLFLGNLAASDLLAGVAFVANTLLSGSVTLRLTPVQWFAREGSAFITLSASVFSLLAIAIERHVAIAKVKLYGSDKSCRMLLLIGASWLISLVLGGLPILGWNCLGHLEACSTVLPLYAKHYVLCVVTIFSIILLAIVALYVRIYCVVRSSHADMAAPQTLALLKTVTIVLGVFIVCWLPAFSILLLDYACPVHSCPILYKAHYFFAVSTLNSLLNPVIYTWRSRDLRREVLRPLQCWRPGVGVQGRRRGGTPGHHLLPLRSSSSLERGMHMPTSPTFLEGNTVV

EC50 (HCT-116 [1]): 8.21 µM
EC50 (SW620/5-FU [2]): 9.15 µM
fold change (FC) [5]: 1.4
Activity [7]: 7.8 µM
half-life [8]: 6 h
AUC(0-t) at 24 h [9]: 10.3 µg·h/mL
AUC(0-inf) [10]: 11.2 µg·h/mL
Vd [11]: 1.8 L/kg
clearance [12]: 0.09 L/h/kg
MRT last at 24 h [13]: 7.9 h
MRT inf [14]: 8.5 h
C0 at 24 h [15]: 4.04 µg/mL
t1/2 [16]: 4.4 h
AUC(0-t) at 24 h [17]: 10.1 µg·h/mL
AUC(0-inf) [18]: 11.7 µg·h/mL
CL [19]: 0.09 L/h/kg
MRT last at 24 h [20]: 7.6 h
MRT inf [21]: 8.3 h
SMILES: Cn1ncc2c(-c3ccc(F)cc3)cc(NNC(=O)Nc3cc(Cl)nc(Cl)c3)nc21
Activity (NCM460): Toxic
Activity (HCT-116 [3]): Dde
Activity (SW620/5-FU [4]): Tde
Activity [6]: 25%
Activity [22]: Non-Toxic
Activity [23]: Non-Toxic
inhibition in vivo at 15 mg/kg (HCT-116 [24]): 70.1%
inhibition in vivo at 15 mg/kg (SW620/5-FU [25]): 28.5%
inhibition in vivo at 7.5 mg/kg (SW620/5-FU [26]): 14.7%
inhibition in vivo at 15 mg/kg (SW620/5-FU [27]): 52%
inhibition in vivo at 30 mg/kg (SW620/5-FU [28]): 62.1%
Activity (SW620/5-FU [29]): 47.79%
Activity (SW620/5-FU [30]): 51.72%
Activity (SW620/5-FU [31]): 60.81%
Activity (Mus musculus [32]): Active
Activity (Mus musculus [33]): Active
